# Laboratory results as given in patent US12174198B2, “Methods of characterizing condensate-associated characteristics of compounds and uses thereof” (Dewpoint Therapeutics, Inc., priority 2019, dated 2024).
# Experiments:
# Format in all cases: physicochemical
# PGL-3 condensates = target: T1, PGL-3 condensates (Caenorhabditis elegans, UniProt G5EBV6); assay: Fluorescence imaging of dye partitioning in PGL-3 condensates (I-in, I-out); conditions: for Ratio of intensity inside:outside PGL-3 Condensates Day 1 / Ratio of intensity inside:outside PGL-3 Condensates Day 2 / Ratio of intensity inside:outside PGL-3 Condensates Average: I-in:I-out; for Ratio of intensity inside:outside PGL-3 Condensates Day 1 / Ratio of intensity inside:outside PGL-3 Condensates Day 2 / Ratio of intensity inside:outside PGL-3 Condensates Average / Intensity Inside with Dye Average / Intensity Inside with Dye 1 / Intensity Inside with Dye 2 / Intensity Inside with Dye 3 / Intensity Outside with Dye Average / Intensity Outside with Dye 1 / Intensity Outside with Dye 2 / Intensity Outside with Dye 3: 10 μM dye; for Ratio of intensity inside:outside PGL-3 Condensates Average: average of two days; for Intensity Inside with Dye Average / Intensity Inside with Dye 1 / Intensity Inside with Dye 2 / Intensity Inside with Dye 3 / Intensity Inside Dye-No Dye: inside PGL-3 condensate; for Intensity Inside with Dye Average / Intensity Inside with Dye 1 / Intensity Inside with Dye 2 / Intensity Inside with Dye 3 / Intensity Outside with Dye Average / Intensity Outside with Dye 1 / Intensity Outside with Dye 2 / Intensity Outside with Dye 3: 5 μM protein; for Intensity Inside with Dye Average / Intensity Outside with Dye Average: average of three images; for Intensity Inside with Dye Average / Intensity Inside with Dye 1 / Intensity Inside with Dye 2 / Intensity Inside with Dye 3 / Intensity Inside Dye-No Dye / Intensity Outside with Dye Average / Intensity Outside with Dye 1 / Intensity Outside with Dye 2 / Intensity Outside with Dye 3 / Intensity Outside (Dye-No Dye): one day of experiments; for Intensity Inside with Dye 1 / Intensity Outside with Dye 1: image 1; for Intensity Inside with Dye 2 / Intensity Outside with Dye 2: image 2; for Intensity Inside with Dye 3 / Intensity Outside with Dye 3: image 3; for Intensity Inside Dye-No Dye / Intensity Outside (Dye-No Dye): background corrected; for Intensity Outside with Dye Average / Intensity Outside with Dye 1 / Intensity Outside with Dye 2 / Intensity Outside with Dye 3 / Intensity Outside (Dye-No Dye): outside PGL-3 condensate
# T1 sequence (G5EBV6 1-693): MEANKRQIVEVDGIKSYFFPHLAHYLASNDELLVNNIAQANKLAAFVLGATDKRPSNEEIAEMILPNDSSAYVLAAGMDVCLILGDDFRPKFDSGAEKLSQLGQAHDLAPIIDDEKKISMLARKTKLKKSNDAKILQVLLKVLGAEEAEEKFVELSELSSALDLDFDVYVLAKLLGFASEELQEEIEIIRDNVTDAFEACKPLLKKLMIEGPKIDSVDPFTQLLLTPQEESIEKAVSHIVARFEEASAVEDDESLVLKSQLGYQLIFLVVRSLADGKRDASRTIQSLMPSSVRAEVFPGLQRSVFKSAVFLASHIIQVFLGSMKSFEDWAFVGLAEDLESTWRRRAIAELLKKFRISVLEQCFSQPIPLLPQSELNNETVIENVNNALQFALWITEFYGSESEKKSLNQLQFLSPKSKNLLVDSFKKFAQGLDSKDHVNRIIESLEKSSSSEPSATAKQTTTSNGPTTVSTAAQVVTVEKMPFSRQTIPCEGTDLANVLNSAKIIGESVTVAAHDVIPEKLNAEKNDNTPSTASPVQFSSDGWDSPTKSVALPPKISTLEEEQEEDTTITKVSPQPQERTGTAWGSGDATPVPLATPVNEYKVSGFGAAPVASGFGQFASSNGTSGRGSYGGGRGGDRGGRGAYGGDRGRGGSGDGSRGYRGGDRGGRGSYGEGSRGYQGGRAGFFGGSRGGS
# Protocol: (§1) All dye-stocks were stored as 1 mM solutions in 100% DMSO. The dyes were dissolved in dilution buffer (DB: 14.7 mM Tris, pH 7.25, 1 mM DTT) to yield 11.765 μM dye in 1.1765 DMSO. 17 μl of dye was distributed in a 384 well non-binding plate (Greiner).
# (§2) Either SNAP-tagged FUS protein or tag-free PGL-3 protein was thawed at room temperature for at least 10 min, and the buffer was exchanged to partitioning buffer (PB: 50 mM Tris pH 7.25, 500 mM KCl, 5% Glycerol, and 1 mM DTT). The protein was then diluted to 33.3 μM in PB. 3 μl of protein solution were added to the 384 well plate to initiate phase separation, yielding 20 μl of 5 μM protein and 10 μM dye in 75 mM KCl, 0.75% Glycerol, 20 mM Tris, 1 mM DTT, and 1% DMSO or for no dye control reactions, 20 μl of 5 μM protein in 75 mM KCl, 0.75% Glycerol, 20 mM Tris, 1 mM DTT.
# (§3) A spinning disk confocal microscope was used to acquire images of the samples. A 60×oil high-NA objective lens was used to capture the condensate droplets. The laser power was set to 20% and the exposure times were adjusted to the fluorescence emission intensity specific for each dye. Exposure times ranged from 1-1000 ms. Appropriate filter settings were used, matching the excitation and emission spectra of the respective dyes. Three images per well were taken. The background signal of protein droplets in the absence of dye was recorded for all applied imaging conditions.
# (§4) Fluorescence intensity was measured inside one exemplary target condensate (Intensity inside, I-in) per image and in a region next to the exemplary target condensate (Intensity outside, I-out) by hand using the image analysis software Fiji. An example depicting the regions measured is shown FIG. 2A. Three I-in and three I-out values were measured in total for each dye in each experiment and were averaged. The measured I-in and I-out values for FUS-SNAP condensates on one day of experiments are shown in Table 2 and Table 3, respectively. The measured I-in and I-out values for PGL-3 condensates on one day of experiments are shown in Table 4 and Table 5, respectively. All values were background corrected, based on the background images (no dye controls) taken with the same microscope conditions.
# (§5) The ratios of the average intensity measured in the target condensates and outside of the target condensates were calculated by dividing I-in by I-out, although dividing I-out by I-in could also have been used. The I-in:I-out ratios determined from the two different days of experiments were then averaged. The average I-in:I-out ratios for FUS-SNAP condensates are shown in FIG. 3 and the average I-in:I-out ratios for PGL-3 condensates are shown in FIG. 4. The standard deviation between the two experiments is represented by the error bars in FIG. 3 and FIG. 4.
# FUS-SNAP condensates = target: T2, FUS-SNAP condensates (Homo sapiens, UniProt P35637); assay: Fluorescence imaging of dye partitioning in FUS-SNAP condensates (I-in, I-out); conditions: for Ratio of intensity inside:outside FUS-SNAP Condensates Day 1 / Ratio of intensity inside:outside FUS-SNAP Condensates Day 2 / Ratio of intensity inside:outside FUS-SNAP Condensates Average: I-in:I-out; for Ratio of intensity inside:outside FUS-SNAP Condensates Day 1 / Ratio of intensity inside:outside FUS-SNAP Condensates Day 2 / Ratio of intensity inside:outside FUS-SNAP Condensates Average / Intensity Inside with Dye Average / Intensity Inside with Dye 1 / Intensity Inside with Dye 2 / Intensity Inside with Dye 3 / Intensity Outside with Dye Average / Intensity Outside with Dye 1 / Intensity Outside with Dye 2 / Intensity Outside with Dye 3: 10 μM dye; for Ratio of intensity inside:outside FUS-SNAP Condensates Average: average of two days; for Intensity Inside with Dye Average / Intensity Inside with Dye 1 / Intensity Inside with Dye 2 / Intensity Inside with Dye 3 / Intensity Inside Dye-No Dye: inside FUS-SNAP condensate; for Intensity Inside with Dye Average / Intensity Inside with Dye 1 / Intensity Inside with Dye 2 / Intensity Inside with Dye 3 / Intensity Outside with Dye Average / Intensity Outside with Dye 1 / Intensity Outside with Dye 2 / Intensity Outside with Dye 3: 5 μM protein; for Intensity Inside with Dye Average / Intensity Outside with Dye Average: average of three images; for Intensity Inside with Dye Average / Intensity Inside with Dye 1 / Intensity Inside with Dye 2 / Intensity Inside with Dye 3 / Intensity Inside Dye-No Dye / Intensity Outside with Dye Average / Intensity Outside with Dye 1 / Intensity Outside with Dye 2 / Intensity Outside with Dye 3 / Intensity Outside (Dye-No Dye): one day of experiments; for Intensity Inside with Dye 1 / Intensity Outside with Dye 1: image 1; for Intensity Inside with Dye 2 / Intensity Outside with Dye 2: image 2; for Intensity Inside with Dye 3 / Intensity Outside with Dye 3: image 3; for Intensity Inside Dye-No Dye / Intensity Outside (Dye-No Dye): background corrected; for Intensity Outside with Dye Average / Intensity Outside with Dye 1 / Intensity Outside with Dye 2 / Intensity Outside with Dye 3 / Intensity Outside (Dye-No Dye): outside FUS-SNAP condensate
# T2 sequence (P35637 1-526): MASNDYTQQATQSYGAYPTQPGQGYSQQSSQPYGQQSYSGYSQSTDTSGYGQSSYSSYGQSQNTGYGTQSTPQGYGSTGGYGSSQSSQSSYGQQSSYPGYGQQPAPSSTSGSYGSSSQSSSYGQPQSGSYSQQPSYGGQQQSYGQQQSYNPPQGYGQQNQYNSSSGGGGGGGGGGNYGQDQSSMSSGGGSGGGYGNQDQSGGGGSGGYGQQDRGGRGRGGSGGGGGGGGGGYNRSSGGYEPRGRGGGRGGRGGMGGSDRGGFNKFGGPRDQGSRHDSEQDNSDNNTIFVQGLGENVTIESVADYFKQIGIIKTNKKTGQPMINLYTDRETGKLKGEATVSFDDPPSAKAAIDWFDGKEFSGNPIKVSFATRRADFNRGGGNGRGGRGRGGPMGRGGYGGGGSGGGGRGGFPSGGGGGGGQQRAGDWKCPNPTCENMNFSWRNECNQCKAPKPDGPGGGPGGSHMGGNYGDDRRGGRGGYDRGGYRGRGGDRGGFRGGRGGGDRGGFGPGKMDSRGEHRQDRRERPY
# Protocol: as §1, §2, §3, §4, §5
# [1] = tested on: FUS-SNAP condensates versus PGL-3 condensates; assay: Condensate preference: ratio of FUS-SNAP I-in:I-out to PGL-3 I-in:I-out; conditions: average FUS-SNAP I-in:I-out divided by average PGL-3 I-in:I-out
# Protocol: as §5
Ratio of intensity inside:outside PGL-3 Condensates Day 1 (PGL-3 condensates),Ratio of intensity inside:outside PGL-3 Condensates Day 2 (PGL-3 condensates),Ratio of intensity inside:outside PGL-3 Condensates Average (PGL-3 condensates),Intensity Inside with Dye Average (PGL-3 condensates),Intensity Inside with Dye 1 (PGL-3 condensates),Intensity Inside with Dye 2 (PGL-3 condensates),Intensity Inside with Dye 3 (PGL-3 condensates),Intensity Inside Dye-No Dye (PGL-3 condensates),Intensity Outside with Dye Average (PGL-3 condensates),Intensity Outside with Dye 1 (PGL-3 condensates),Intensity Outside with Dye 2 (PGL-3 condensates),Intensity Outside with Dye 3 (PGL-3 condensates),Intensity Outside (Dye-No Dye) (PGL-3 condensates),Ratio of intensity inside:outside FUS-SNAP Condensates Day 1 (FUS-SNAP condensates),Ratio of intensity inside:outside FUS-SNAP Condensates Day 2 (FUS-SNAP condensates),Ratio of intensity inside:outside FUS-SNAP Condensates Average (FUS-SNAP condensates),Intensity Inside with Dye Average (FUS-SNAP condensates),Intensity Inside with Dye 1 (FUS-SNAP condensates),Intensity Inside with Dye 2 (FUS-SNAP condensates),Intensity Inside with Dye 3 (FUS-SNAP condensates),Structure (SMILES),also measured
1.5,1.1,1.3,2098.0,2228.4,2006.3,2059.4,1977.3,1447.1,1472.5,1407.6,1461.1,1326.6,2.5,2.8,2.7,3572.7,3451.6,3462.2,3804.4,"O=C(O)c1cc2cc3c4c(c2oc1=O)CCCN4CCC3 [Dye 3, Coumarin 343]",Intensity Inside Dye-No Dye (FUS-SNAP condensates): 3452.8; Intensity Outside with Dye Average (FUS-SNAP condensates): 1498.4; Intensity Outside with Dye 1 (FUS-SNAP condensates): 1486.5; Intensity Outside with Dye 2 (FUS-SNAP condensates): 1529.0; Intensity Outside with Dye 3 (FUS-SNAP condensates): 1479.6; Intensity Outside (Dye-No Dye) (FUS-SNAP condensates): 1378.3; Ratio of FUS-SNAP:PGL-3 [1]: 2.0
1.1,1.1,1.1,3038.9,2939.4,3141.8,3035.4,2892.4,2837.5,2781.8,2905.7,2825.1,2732.2,2.1,2.1,2.1,4669.4,4600.2,4189.8,5218.3,"O=C(CCCC[C@@H]1SCC2NC(=O)NC21)NCCNC(=O)c1ccc(-c2c3ccc(=O)cc-3oc3ccc(O)cc23)c(C(=O)O)c1 (stereo partly drawn) [Dye 13, Biotin-4-Fluorescein]",Intensity Inside Dye-No Dye (FUS-SNAP condensates): 4534.2; Intensity Outside with Dye Average (FUS-SNAP condensates): 2242.3; Intensity Outside with Dye 1 (FUS-SNAP condensates): 2286.6; Intensity Outside with Dye 2 (FUS-SNAP condensates): 2244.6; Intensity Outside with Dye 3 (FUS-SNAP condensates): 2195.6; Intensity Outside (Dye-No Dye) (FUS-SNAP condensates): 2138.2; Ratio of FUS-SNAP:PGL-3 [1]: 2.0
